± gives the expanded uncertainty stated by the source.
Columns and labels:
[1] = 101.33 kPa, Liquid, Vibrating tube method
[2] = refractive index (Na D-line) (dimensionless); conditions: 101.33 kPa, Liquid, Standard Abbe refractometry

Row | Compound | refractive index ([2]; 293.15 K) | mass density ([1]; 293.15 K) | also measured
1 | CC(=O)CC(C)C [4-methylpentan-2-one] | 1.3958 ± 0.0011 | – | mass density ([1]; 298.15 K): 796.1 ± 2.1 kg/m3
2 | COC(C)(C)C [2-methoxy-2-methylpropane] | – | – | mass density ([1]; 298.15 K): 734.7 ± 2 kg/m3; refractive index ([2]; 298.15 K): 1.3664 ± 0.0011
3 | O [water] | 1.3324 ± 0.0011 | 999.9 ± 2.7 kg/m3 | –
4 | CCCCCC [hexane] | – | – | mass density ([1]; 298.15 K): 660.4 ± 1.8 kg/m3; refractive index ([2]; 298.15 K): 1.3729 ± 0.0011
5 | CCCCCCCCCCO [decan-1-ol] | 1.4374 ± 0.0011 | 829.6 ± 2.2 kg/m3 | –
6 | CCCCCCCCCCCCO [dodecan-1-ol] | – | – | mass density ([1]; 297.15 K): 831.1 ± 2.2 kg/m3
7 | CCCCCCCCCO [nonan-1-ol] | 1.4327 ± 0.0011 | 828.5 ± 2.2 kg/m3 | –
8 | CCCCCCCC/C=C\CCCCCCCCO [(Z)-9-octadecen-1-ol] | 1.4601 ± 0.0011 | 849 ± 2.3 kg/m3 | –
9 | CCOC(C)=O [ethyl acetate] | 1.372 ± 0.0011 | 900.1 ± 2.4 kg/m3 | –
10 | CC(=O)C(C)C [3-methyl-2-butanone] | 1.3884 ± 0.0011 | 804.8 ± 2.1 kg/m3 | –
11 | CCCC(=O)O [butanoic acid] | 1.3982 ± 0.0011 | – | mass density ([1]; 298.15 K): 952.3 ± 2.5 kg/m3
12 | CC(C)CCO [3-methylbutan-1-ol] | 1.4075 ± 0.0011 | 808.4 ± 2.1 kg/m3 | –
13 | CCC(C)=O [butanone] | 1.3793 ± 0.0011 | – | mass density ([1]; 298.15 K): 798.2 ± 2.1 kg/m3
14 | CC(=O)OC1CCCCC1 [cyclohexyl ethanoate] | 1.4421 ± 0.0011 | 968.4 ± 2.6 kg/m3 | –
15 | CCCC(=O)CCC [4-heptanone] | 1.4068 ± 0.0011 | 817.6 ± 2.2 kg/m3 | –
16 | Cc1ccccc1 [toluene] | 1.496 ± 0.0011 | 866.7 ± 2.3 kg/m3 | –
17 | CCCCCCCCN(CCCCCCCC)CCCCCCCC [trioctylamine] | – | 810.7 ± 2.2 kg/m3 | refractive index ([2]; 292.15 K): 1.4505 ± 0.0011
18 | COC(=O)c1ccccc1C(=O)OC [dimethyl 1,2-benzenedicarboxylate] | 1.5135 ± 0.0011 | 1190.4 ± 3.2 kg/m3 | –
19 | CCCCOC(=O)c1ccccc1C(=O)OCCCC [dibutyl phthalate] | 1.4909 ± 0.0011 | 1047.1 ± 2.8 kg/m3 | –
